Source: US9610279B2, “Method for induction of a heat shock protein, anti-stress or regulation of an autonomic nerve” (AMINO UP CHEMICAL CO., LTD., priority 2011, dated 2017)

Tested on: HSP70
Experiment: HSP70 protein expression inducing activity in HeLa cells (ELISA)
Format: cell-based, human
Settings: final concentration 1 mg/mL, 24 hours
Method: The HSP70 inducing activity of the samples 1, 3, and 4 which were the same ones as used in Example 4 was evaluated by measuring an HSP70 protein expression level. In the same manner as described in Example 4, HeLa cells that had been suspended in DMEM (added with 10% FBS) were seeded in a 12-well plate (100,000 cells/mL/well). […] A part of the cells were then scraped off with a cell scraper, collected into a 1.5 mL sample tube, and subjected to HSP70 protein quantification and total protein quantification. The quantification of HSP70 protein was carried out using HSP70 ELISA kit (product name) (manufactured by Enzo); and the quantification of total protein was carried out using Micro BCA Protein Assay Reagent kit (product name) (manufactured by PIERCE Biotechnology). With regard to the remaining cells, an effect on cell proliferation was evaluated by 3-(4,5-dimethyl […])-2,5-diphenyltetrazalium bromide (MTT) method. […]

O=Cc1ccc(CO)o1 [sample 1, 5-Hydroxymethyl-2-furaldehyde]
increased HSP70 protein expression as compared with the control: about 1.3 fold
